≈ marks a conversion by molar mass, not a printed value. Where “and” joins values, the source holds several entries; their conditions need not be identical. Identical values can stand only once. Entries after “also recorded” stand apart in the source; their conditions may differ. Like-named read-outs stand apart in the source and are kept apart here.
Tests used:
A. baumannii AB5075 [1] = assay: Resistance studies (agar plates and 21-day serial passaging); format: cell-based, Acinetobacter baumannii
Experimental: To test for spontaneous development of resistance to PGG, A. baumannii AB5075 was inoculated on agar plates containing PGG at 0.5×MIC, 1×MIC, and 2×MIC (128, 256, and 512 μg/mL, respectively), and a control plate containing no PGG. […] Next, evolution of resistance was tested by serial passaging A. baumannii AB5075 for 21 days in the presence of a PGG gradient, using culture from the 0.5×MIC treatment for each subsequent passage. Serial passaging with a tetracycline gradient served as a control.

A. baumannii AB5075 [2] = assay: Restoration assay (iron addition to PGG-treated wells); format: cell-based, Acinetobacter baumannii; conditions: AB5075, 1 mM iron (II) or iron (III) sulfate on PGG-treated wells, 24-48 h
Experimental: To test for the restoration of bacterial growth after iron addition, iron (II) and iron (III) sulfate were spread at concentrations of 1 mM on PGG-treated A. baumannii AB5075 wells that had no visible colonies after 24 h of incubation. Immediately after addition of iron to the agar, all wells containing PGG obtained a purple color, increasing in darkness with increasing PGG concentration.

[3] = Lactate dehydrogenase (LDH) cytotoxicity assay; format: cell-based, human; conditions: human; HaCaT, LDH assay
From the text: (§1) Immortalized human keratinocyte cells (HaCaTs) were used in a lactate dehydrogenase (LDH) assay to assess cytotoxicity by PGG and its parents.

[4] = system: Immortalized human keratinocyte cells (HaCaTs); assay: Lactate dehydrogenase (LDH) cytotoxicity assay; format: cell-based; conditions: HaCaT IC50 over median IC50 for growth inhibition of A. baumannii
From the text: as §1

Enterococcus faecium = assay: Growth inhibition of ESKAPE pathogens; format: cell-based
Experimental: (§2) PGG was also tested against a panel of other ESKAPE pathogens: Enterococcus faecium, Staphylococcus aureus, Klebsiella pneumoniae, Pseudomonas aeruginosa, and Enterobacter cloacae.

Enterobacter cloacae = assay: Growth inhibition of ESKAPE pathogens; format: cell-based
Experimental: as §2

Pseudomonas aeruginosa = assay: Growth inhibition of ESKAPE pathogens; format: cell-based
Experimental: as §2

Klebsiella pneumoniae = assay: Growth inhibition of ESKAPE pathogens; format: cell-based
Experimental: as §2

Staphylococcus aureus = assay: Growth inhibition of ESKAPE pathogens; format: cell-based; conditions: strain LAC
Experimental: as §2

A. baumannii = assay: Time-kill assays with and without supplements; format: cell-based, Acinetobacter baumannii
Experimental: PGG antibacterial activity may be attributed to its chelation of iron. One can use a colorimetric assay to quantify binding of free iron by PGG. One can perform bioassays with iron supplementation and 2,2′-dipyridyl, a known iron chelator, as a control. To elucidate potential mechanisms of action of PGG, A. baumannii growth inhibition and time-kill assays were carried out with various supplements in combination with PGG: 0.02% oleic acid, 0.02% polysorbate 80, 1 mM iron (II) sulfate, and 1 mM iron (III) sulfate. […] Furthermore, PGG combined with oleic acid, polysorbate 80, and iron (II) sulfate treatments had roughly tenfold, 100-fold, and 1,000-fold higher CFU/mL measurements, respectively, than PGG alone at the 24 h timepoint.

A. baumannii AB5075 [5] = assay: Biofilm formation inhibition and biofilm eradication; format: cell-based, Acinetobacter baumannii
From the text: However, there was no significant difference between PGG and control with regards to biofilm promotion or inhibition at any concentration tested and no dose-response trend was noted.

Candida species = assay: Growth inhibition of a panel of Candida strains; format: cell-based
Experimental: The activity of PGG was tested for growth inhibition against two susceptible strains and 6 drug resistant strains from three Candida species (Table 2). […] The activity of PGG followed a dose-response curve against tested strains. Typically the strains tested had MICs less than 2 μg/mL. Candida glabrata (AR Bank #0335) yielded the highest MIC at 8 μg/mL.

[6] = in vivo; cited from earlier work

O=C(OC[C@H]1O[C@@H](OC(=O)c2cc(O)c(O)c(O)c2)[C@H](OC(=O)c2cc(O)c(O)c(O)c2)[C@@H](OC(=O)c2cc(O)c(O)c(O)c2)[C@@H]1OC(=O)c1cc(O)c(O)c(O)c1)c1cc(O)c(O)c(O)c1 [PGG, [(2R,3R,4S,5R,6S)-3,4,5,6-tetrakis[(3,4,5-trihydroxybenzoyl)oxy]oxan-2-yl]methyl 3,4,5-trihydroxybenzoate]
evolution of resistance on serial passaging (A. baumannii AB5075 [1]; A. baumannii AB5075, 21 daily passages from the 0.5×MIC treatment): did not produce any resistant mutants; also recorded: remained stable; also recorded: did not stimulate any spontaneous resistance
spontaneous development of resistance (colonies on agar plates) (A. baumannii AB5075 [1]; A. baumannii AB5075, agar with 128, 256 and 512 μg/mL, 24 h): no colonies appeared
MIC (A. baumannii AB5075 [1]; Acinetobacter baumannii, AB5075, read-out: Base MIC): 256 µg/mL (≈ 272 µM)
restoration of bacterial growth after iron addition (A. baumannii AB5075 [2]): can be attenuated by addition of iron
IC50 [3]: 256 µg/mL (≈ 272 µM)
therapeutic index [4]: 32
IC50 (Enterococcus faecium; strain NR-31915, read-out: PGG IC50): 128 µg/mL (≈ 136 µM)
MIC (Enterococcus faecium; strain NR-31915, read-out: PGG MIC): > 256 µg/mL
MIC (Enterobacter cloacae; read-out: PGG MIC): > 256 µg/mL
IC50 (Enterobacter cloacae; strain AR Bank #0032, read-out: PGG IC50): 64 µg/mL (≈ 68 µM)
MIC (Pseudomonas aeruginosa; P. aeruginosa, strain not given, read-out: MIC): 16 µg/mL (≈ 17 µM)
IC50 (Pseudomonas aeruginosa; strain AR Bank #0054, read-out: PGG IC50): 8 µg/mL (≈ 8.5 µM)
MIC (Pseudomonas aeruginosa; strain AR Bank #0054, read-out: PGG MIC): > 64 µg/mL
IC50 (Pseudomonas aeruginosa; strain AR Bank #0064, read-out: PGG IC50): 4 µg/mL (≈ 4.25 µM)
MIC (Pseudomonas aeruginosa; strain AR Bank #0064, read-out: PGG MIC): 16 µg/mL (≈ 17 µM)
IC50 (Pseudomonas aeruginosa; strain AR Bank #0090, read-out: PGG IC50): 4 µg/mL (≈ 4.25 µM)
MIC (Pseudomonas aeruginosa; strain AR Bank #0090, read-out: PGG MIC): > 64 µg/mL
IC50 (Pseudomonas aeruginosa; strain AR Bank #0092, read-out: PGG IC50): 4 µg/mL (≈ 4.25 µM)
MIC (Pseudomonas aeruginosa; strain AR Bank #0092, read-out: PGG MIC): > 64 µg/mL
IC50 (Pseudomonas aeruginosa; strain AR Bank #0094, read-out: PGG IC50): 8 µg/mL (≈ 8.5 µM)
MIC (Pseudomonas aeruginosa; strain AR Bank #0094, read-out: PGG MIC): 64 µg/mL (≈ 68 µM)
IC50 (Pseudomonas aeruginosa; strain AR Bank #0095, read-out: PGG IC50): 8 µg/mL (≈ 8.5 µM)
MIC (Pseudomonas aeruginosa; strain AR Bank #0095, read-out: PGG MIC): 64 µg/mL (≈ 68 µM)
IC50 (Pseudomonas aeruginosa; strain AR Bank #0100, read-out: PGG IC50): 8 µg/mL (≈ 8.5 µM)
MIC (Pseudomonas aeruginosa; strain AR Bank #0100, read-out: PGG MIC): > 64 µg/mL
IC50 (Pseudomonas aeruginosa; strain AR Bank #0103, read-out: PGG IC50): 4 µg/mL (≈ 4.25 µM)
MIC (Pseudomonas aeruginosa; strain AR Bank #0103, read-out: PGG MIC): 64 µg/mL (≈ 68 µM)
IC50 (Pseudomonas aeruginosa; strain AR Bank #0105, read-out: PGG IC50): 32 µg/mL (≈ 34 µM)
MIC (Pseudomonas aeruginosa; strain AR Bank #0105, read-out: PGG MIC): > 64 µg/mL
IC50 (Pseudomonas aeruginosa; strain AR Bank #0108, read-out: PGG IC50): 8 µg/mL (≈ 8.5 µM)
MIC (Pseudomonas aeruginosa; strain AR Bank #0108, read-out: PGG MIC): > 64 µg/mL
IC50 (Pseudomonas aeruginosa; strain AR Bank #0110, read-out: PGG IC50): 4 µg/mL (≈ 4.25 µM)
MIC (Pseudomonas aeruginosa; strain AR Bank #0110, read-out: PGG MIC): 64 µg/mL (≈ 68 µM)
IC50 (Pseudomonas aeruginosa; strain AR Bank #0111, read-out: PGG IC50): 4 µg/mL (≈ 4.25 µM)
MIC (Pseudomonas aeruginosa; strain AR Bank #0111, read-out: PGG MIC): 64 µg/mL (≈ 68 µM)
IC50 (Pseudomonas aeruginosa; strain PA01, read-out: PGG IC50): 8 µg/mL (≈ 8.5 µM)
MIC (Pseudomonas aeruginosa; strain PA01, read-out: PGG MIC): 16 µg/mL (≈ 17 µM)
MIC (Klebsiella pneumoniae; read-out: PGG MIC): 256 µg/mL (≈ 272 µM)
IC50 (Klebsiella pneumoniae; strain NR-15410, read-out: PGG IC50): 8 µg/mL (≈ 8.5 µM)
IC50 (Staphylococcus aureus; read-out: PGG IC50): 16 µg/mL (≈ 17 µM)
MIC (Staphylococcus aureus; read-out: PGG MIC): 64 µg/mL (≈ 68 µM)
kind of activity in time-kill (CFU/mL curve) (A. baumannii; PGG alone, 256 μg/mL): bacteriostatic rather than bactericidal
CFU/mL relative to PGG alone (A. baumannii; PGG combined with iron (II) sulfate, 24 h timepoint): ~1,000 fold
CFU/mL relative to PGG alone (A. baumannii; PGG combined with oleic acid, 24 h timepoint): roughly tenfold
CFU/mL relative to PGG alone (A. baumannii; PGG combined with polysorbate 80, 24 h timepoint): ~100 fold
biofilm formation inhibition (A. baumannii AB5075 [5]; AB5075, 0.5-64 μg/mL (sub-MIC)): did not exhibit any antibiofilm activity
biofilm eradication (A. baumannii AB5075 [5]; AB5075, 2-256 μg/mL): did not exhibit any antibiofilm activity
biofilm formation relative to vehicle (DMSO) control (A. baumannii AB5075 [5]; AB5075, 8-64 μg/mL, not significant): mild promotion of biofilm formation
MIC (Candida species; Candida strains tested, read-out: MICs typical of the strains tested): < 2 µg/mL
IC50 (Candida species; two susceptible and 6 drug resistant strains from three Candida species, read-out: IC50 values, range over strains): 0.25 µg/mL to 2 µg/mL and 260 nM to 2.1 µM
oral bioavailability [6]: low oral bioavailability
